From ChEMBL document CHEMBL3885861, “Open TG-GATES”

Species on record: Rattus norvegicus
Experiment: Open TG-GATES - Regimen: Daily Repeat
Format: toxicity, organism-based, Sprague-Dawley
Design: regimen Daily Repeat, gender Male, age 6 weeks
Details: in vivo, po, route gavage; for Bas / Eos / Fbg / Ht / Lym / MCHC / MCV / Mono / PT / Plat / RBC / Ret / WBC / Neu: tissue Blood; for KIDNEY_L / KIDNEY_R / KIDNEY_TOTAL: tissue Kidney; for ALT / AST / CRE / Ca / DBIL / GLC / IP / K / LDH / Na / PL / RALB / TBIL / TC / TG / TP / gamma-GTP / BUN / Cl: tissue Plasma
[1] = 240 mg/kg, 72 h, dose level Middle, time 3 day
[2] = 240 mg/kg, […], dose level Middle, time 7 day
[3] = 240 mg/kg, […], dose level Middle, time 14 day
[4] = 240 mg/kg, […], dose level Middle, time 28 day
[5] = 800 mg/kg, 72 h, dose level High, time 3 day
[6] = 800 mg/kg, […], dose level High, time 7 day
[7] = 800 mg/kg, […], dose level High, time 14 day
[8] = 800 mg/kg, […], dose level High, time 28 day

COc1ccc([C@@H]2Sc3ccccc3N(CCN(C)C)C(=O)[C@@H]2OC(C)=O)cc1 [DILTIAZEM]
Bas [1]: 0.2% | Eos [1]: 1% | Fbg [1]: 294.4 mg/dL | Ht [1]: 40.4% | Lym [1]: 71.6% | MCHC [1]: 32.8% | MCV [1]: 65.7 fL | Mono [1]: 3.4% | PT [1]: 13.8 s | Plat [1]: 118.5 x10_4/uL | RBC [1]: 614.8 x10_4/ul | Ret [1]: 8.8% | WBC [1]: 106.5 x10_2/uL | KIDNEY_L [1]: 1 g | KIDNEY_R [1]: 1 g | KIDNEY_TOTAL [1]: 2 g | ALT [1]: 50 IU/L | AST [1]: 67.4 IU/L | CRE [1]: 0.2 mg/dL | Ca [1]: 11.3 mg/dL | DBIL [1]: 0.02 mg/dL | GLC [1]: 183 mg/dL | IP [1]: 8.1 mg/dL | K [1]: 3.9 meq/L | LDH [1]: 81.8 IU/L | Na [1]: 144 meq/L | PL [1]: 153.8 mg/dL | RALB [1]: 2.7 g/dL | TBIL [1]: 0.024 mg/dL | TC [1]: 87.6 mg/dL | TG [1]: 99.4 mg/dL | TP [1]: 5.6 g/dL | gamma-GTP [1]: 1.2 IU/L | TERMINAL_BW [2]: 251.4 g | TERMINAL_BW [3]: 321.6 g | TERMINAL_BW [4]: 419 g | Bas [2]: 0% | Eos [2]: 0.8% | Fbg [2]: 301.4 mg/dL | Ht [2]: 41% | Lym [2]: 75.2% | MCHC [2]: 32.9% | MCV [2]: 63.6 fL | Mono [2]: 2.6% | Neu [2]: 20.6% | PT [2]: 13.9 s | Plat [2]: 129.2 x10_4/uL | RBC [2]: 644.6 x10_4/ul | Ret [2]: 7% | WBC [2]: 72.6 x10_2/uL | Bas [3]: 0.6% | Eos [3]: 0.8% | Fbg [3]: 336.4 mg/dL | Ht [3]: 42.8% | Lym [3]: 73% | MCHC [3]: 33.1% | MCV [3]: 61.7 fL | Mono [3]: 2.6% | Neu [3]: 22.2% | PT [3]: 14.1 s | Plat [3]: 131.9 x10_4/uL | RBC [3]: 693.6 x10_4/ul | Ret [3]: 5.6% | WBC [3]: 112.7 x10_2/uL | Bas [4]: 0.2% | Eos [4]: 1.4% | Fbg [4]: 305.4 mg/dL | Ht [4]: 45.7% | Lym [4]: 69% | MCHC [4]: 34.4% | MCV [4]: 58.1 fL | Mono [4]: 2.4% | Neu [4]: 26.6% | PT [4]: 13.9 s | Plat [4]: 109.1 x10_4/uL | RBC [4]: 786.8 x10_4/ul | Ret [4]: 2.5% | WBC [4]: 119 x10_2/uL | KIDNEY_L [2]: 1.1 g | KIDNEY_R [2]: 1 g | KIDNEY_TOTAL [2]: 2.1 g | KIDNEY_L [3]: 1.3 g | KIDNEY_R [3]: 1.4 g | KIDNEY_TOTAL [3]: 2.7 g | KIDNEY_L [4]: 1.5 g | KIDNEY_R [4]: 1.5 g | KIDNEY_TOTAL [4]: 3 g | ALT [2]: 38.6 IU/L | AST [2]: 61.6 IU/L | BUN [2]: 15 mg/dL | CRE [2]: 0.2 mg/dL | Ca [2]: 11.4 mg/dL | Cl [2]: 105.8 meq/L | DBIL [2]: 0.01 mg/dL | GLC [2]: 190.6 mg/dL | IP [2]: 8.2 mg/dL | K [2]: 3.9 meq/L | LDH [2]: 97.2 IU/L | Na [2]: 144.2 meq/L | PL [2]: 155 mg/dL | RALB [2]: 2.8 g/dL | TBIL [2]: 0.016 mg/dL | TC [2]: 81.2 mg/dL | TG [2]: 117 mg/dL | TP [2]: 5.9 g/dL | gamma-GTP [2]: 1.2 IU/L | ALT [3]: 44.4 IU/L | AST [3]: 67.8 IU/L | BUN [3]: 14.8 mg/dL | CRE [3]: 0.2 mg/dL | Ca [3]: 11 mg/dL | DBIL [3]: 0.012 mg/dL | GLC [3]: 194.4 mg/dL | IP [3]: 7.6 mg/dL | K [3]: 4 meq/L | LDH [3]: 80 IU/L | Na [3]: 144.4 meq/L | PL [3]: 165.4 mg/dL | RALB [3]: 2.8 g/dL | TBIL [3]: 0.014 mg/dL | TC [3]: 84.2 mg/dL | TG [3]: 125.4 mg/dL | TP [3]: 6.1 g/dL | gamma-GTP [3]: 1.4 IU/L | ALT [4]: 43.8 IU/L | AST [4]: 64.2 IU/L | BUN [4]: 17.2 mg/dL | CRE [4]: 0.2 mg/dL | Ca [4]: 11.3 mg/dL | Cl [4]: 108.6 meq/L | DBIL [4]: 0.012 mg/dL | GLC [4]: 188.6 mg/dL | IP [4]: 7 mg/dL | K [4]: 4 meq/L | LDH [4]: 82.6 IU/L | Na [4]: 146.6 meq/L | PL [4]: 168.8 mg/dL | RALB [4]: 3 g/dL | TBIL [4]: 0.014 mg/dL | TC [4]: 85.2 mg/dL | TG [4]: 163.4 mg/dL | TP [4]: 6.6 g/dL | gamma-GTP [4]: 1 IU/L | TERMINAL_BW [5]: 201.2 g | Bas [5]: 0% | Eos [5]: 1% | Fbg [5]: 277 mg/dL | Ht [5]: 41.8% | Lym [5]: 71.4% | MCHC [5]: 33.3% | MCV [5]: 64.5 fL | Mono [5]: 2.6% | Neu [5]: 24.2% | PT [5]: 14 s | Plat [5]: 141.9 x10_4/uL | RBC [5]: 651.2 x10_4/ul | Ret [5]: 7.5% | WBC [5]: 87.5 x10_2/uL | KIDNEY_L [5]: 0.9 g | KIDNEY_R [5]: 0.9 g | KIDNEY_TOTAL [5]: 1.8 g | ALT [5]: 36.4 IU/L | AST [5]: 61.8 IU/L | CRE [5]: 0.2 mg/dL | Ca [5]: 11 mg/dL | Cl [5]: 106.6 meq/L | DBIL [5]: 0.014 mg/dL | GLC [5]: 161.8 mg/dL | IP [5]: 8 mg/dL | K [5]: 4 meq/L | LDH [5]: 76.6 IU/L | Na [5]: 143.6 meq/L | PL [5]: 151.4 mg/dL | RALB [5]: 2.6 g/dL | TBIL [5]: 0.012 mg/dL | TC [5]: 92.2 mg/dL | TG [5]: 96.6 mg/dL | TP [5]: 5.4 g/dL | gamma-GTP [5]: 1 IU/L | TERMINAL_BW [6]: 242.9 g | TERMINAL_BW [7]: 272.9 g | TERMINAL_BW [8]: 390.8 g | Bas [6]: 0% | Eos [6]: 0.6% | Fbg [6]: 312.6 mg/dL | Ht [6]: 40.7% | Lym [6]: 70.6% | MCHC [6]: 33.3% | MCV [6]: 63.4 fL | Mono [6]: 2.8% | Neu [6]: 25.4% | PT [6]: 14.6 s | Plat [6]: 130.6 x10_4/uL | RBC [6]: 641.4 x10_4/ul | Ret [6]: 6.3% | WBC [6]: 99.7 x10_2/uL | Bas [7]: 0% | Eos [7]: 0.6% | Fbg [7]: 373.6 mg/dL | Ht [7]: 45.5% | Lym [7]: 73.2% | MCHC [7]: 33.4% | MCV [7]: 59.8 fL | Mono [7]: 3.4% | Neu [7]: 21.4% | PT [7]: 14.1 s | Plat [7]: 133.1 x10_4/uL | RBC [7]: 760 x10_4/ul | Ret [7]: 4% | WBC [7]: 108.8 x10_2/uL | Bas [8]: 0.2% | Eos [8]: 1% | Fbg [8]: 281.5 mg/dL | Ht [8]: 45.1% | Lym [8]: 64.8% | MCHC [8]: 34.1% | MCV [8]: 58.1 fL | Mono [8]: 3.2% | Neu [8]: 30.2% | PT [8]: 14.5 s | Plat [8]: 116.2 x10_4/uL | RBC [8]: 777.2 x10_4/ul | Ret [8]: 3.3% | WBC [8]: 123.1 x10_2/uL | KIDNEY_L [6]: 1 g | KIDNEY_R [6]: 1 g | KIDNEY_TOTAL [6]: 2 g | KIDNEY_L [7]: 1.2 g | KIDNEY_R [7]: 1.2 g | KIDNEY_TOTAL [7]: 2.4 g | KIDNEY_L [8]: 1.5 g | KIDNEY_R [8]: 1.5 g | KIDNEY_TOTAL [8]: 2.9 g | ALT [6]: 50 IU/L | AST [6]: 70.6 IU/L | CRE [6]: 0.2 mg/dL | Ca [6]: 11.3 mg/dL | Cl [6]: 105.6 meq/L | DBIL [6]: 0.006 mg/dL | GLC [6]: 187 mg/dL | IP [6]: 8.3 mg/dL | K [6]: 4 meq/L | LDH [6]: 101.6 IU/L | Na [6]: 144.8 meq/L | PL [6]: 145 mg/dL | RALB [6]: 2.7 g/dL | TBIL [6]: 0.004 mg/dL | TC [6]: 87.2 mg/dL | TG [6]: 59.6 mg/dL | TP [6]: 5.7 g/dL | gamma-GTP [6]: 1.2 IU/L | ALT [7]: 61.6 IU/L | AST [7]: 115.4 IU/L | BUN [7]: 16 mg/dL | CRE [7]: 0.2 mg/dL | Ca [7]: 10.7 mg/dL | DBIL [7]: 0.008 mg/dL | GLC [7]: 166.2 mg/dL | IP [7]: 7.2 mg/dL | K [7]: 4 meq/L | LDH [7]: 96.2 IU/L | Na [7]: 146.4 meq/L | PL [7]: 152.8 mg/dL | RALB [7]: 2.8 g/dL | TBIL [7]: 0.004 mg/dL | TC [7]: 99.2 mg/dL | TG [7]: 66.4 mg/dL | TP [7]: 6.1 g/dL | gamma-GTP [7]: 1 IU/L | ALT [8]: 52.5 IU/L | AST [8]: 64 IU/L | BUN [8]: 17.2 mg/dL | CRE [8]: 0.2 mg/dL | Ca [8]: 11.4 mg/dL | Cl [8]: 105.8 meq/L | DBIL [8]: 0.01 mg/dL | GLC [8]: 174.8 mg/dL | IP [8]: 7.2 mg/dL | K [8]: 3.9 meq/L | LDH [8]: 74.8 IU/L | Na [8]: 145.8 meq/L | PL [8]: 154 mg/dL | RALB [8]: 3 g/dL | TBIL [8]: 0.0025 mg/dL | TC [8]: 85.8 mg/dL | TG [8]: 72.2 mg/dL | TP [8]: 6.4 g/dL | gamma-GTP [8]: 2.2 IU/L
